These results are taken from PubChem BioAssay AID328 (DTP/NCI, 2004).

This assay concerns BDF1 mice, P388 leukemia ip, median survival T/C. The assay is described as follows: NCI In Vivo Anticancer Drug Screen. Data for tumor model P388 Leukemia (intraperitoneal) in B6D2F1 (BDF1) mice. As to conditions: endpoint: median survival time, higher = longer survival. The essentials: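 Each value expresses how treatment altered survival: treated-mouse outcome over vehicle-mouse outcome, both groups bearing the transplanted tumour.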

Where [1] appears, read: dose: 16.5 mg/kg/injection, schedule: Q01DX009 (ip), vehicle: saline with Tween-80.
Where [2] appears, read: dose: 25.0 mg/kg/injection, schedule: Q01DX009 (ip), vehicle: saline with Tween-80.
The mark [3] stands for this setting: dose: 50.0 mg/kg/injection, schedule: Q01DX009 (ip), vehicle: Klucel (hydroxypropylcellulose) (HPC).
The mark [4] stands for this setting: dose: 50.0 mg/kg/injection, schedule: Q04DX003 (ip), vehicle: Klucel (hydroxypropylcellulose) (HPC).
[5] abbreviates: dose: 100.0 mg/kg/injection, schedule: Q01DX009 (ip), vehicle: Klucel (hydroxypropylcellulose) (HPC).
The mark [6] stands for this setting: dose: 100.0 mg/kg/injection, schedule: Q04DX003 (ip), vehicle: Klucel (hydroxypropylcellulose) (HPC).
[7] abbreviates: dose: 200.0 mg/kg/injection, schedule: Q04DX003 (ip), vehicle: Klucel (hydroxypropylcellulose) (HPC).

Several values for one entry are separate records, joined by “and”; a condition that tells them apart may be missing. Identical values can stand only once. Toxic doses and inconclusive results are not listed.

On to `Cc1cc(C)c(CCl)cc1CCl`, for which the T/C reads like this: (dose: 3.0 mg/kg/injection, schedule: Q01DX009 (ip), vehicle: saline with Tween-80) 104 % of control; (dose: 4.5 mg/kg/injection, schedule: Q01DX009 (ip), vehicle: saline with Tween-80) 116 % of control; (dose: 6.25 mg/kg/injection, schedule: Q01DX009 (ip), vehicle: saline with Tween-80) 118 % of control; under setting [1], 150 % of control; (dose: 37.5 mg/kg/injection, schedule: Q01DX009 (ip), vehicle: saline with Tween-80) 120 % of control.
With `COc1ccc(-c2c(C#N)cnc(C)c2C)c(O)c1OC`, the T/C (dose: 0.2 mg/kg/injection, schedule: Q01DX009 (ip), vehicle: Klucel (hydroxypropylcellulose) (HPC)) is 95 % of control.
Consider `COc1cccc(C(=O)C=C(C(F)(F)F)C(F)(F)F)c1`, for which the T/C was 109 % of control (dose: 11.0 mg/kg/injection, schedule: Q01DX009 (ip), vehicle: saline with Tween-80); 109 % of control under setting [1]; 113 % of control under setting [2].
With `CN(C)CCC(O)Cc1ccccc1` (stereo unspecified), the T/C (dose: 50.0 mg/kg/injection, schedule: Q04DX003 (ip), vehicle: acetone) is 100 % of control; the T/C (dose: 100.0 mg/kg/injection, schedule: Q04DX003 (ip), vehicle: acetone) is 100 % of control; the T/C (dose: 200.0 mg/kg/injection, schedule: Q04DX003 (ip), vehicle: acetone) was 105 % of control.
As for `Cc1cccc(-c2nc3cc(Cl)ccc3c(=O)o2)c1`, the T/C runs as follows: under setting [3], 104 % of control; under setting [4], 95 % of control; under setting [5], 109 % of control; under setting [6], 100 % of control; under setting [7], 95 % of control.
`CC1(C)COC(c2ccccc2)=N1`: the T/C (dose: 100.0 mg/kg/injection, schedule: Q01DX001 (ip), vehicle: saline sonified) was 100 % of control; the T/C (dose: 200.0 mg/kg/injection, schedule: Q01DX001 (ip), vehicle: saline sonified) was 100 % of control; the T/C (dose: 400.0 mg/kg/injection, schedule: Q01DX001 (ip), vehicle: saline sonified) was 110 % of control.
As for `CCN(CC)CCOc1cc(C)ccc1C(C)C`, the T/C under setting [2] was 96 % of control; the T/C (dose: 25.0 mg/kg/injection, schedule: Q04DX003 (ip), vehicle: saline with Tween-80) was 109 % of control; the T/C (dose: 50.0 mg/kg/injection, schedule: Q01DX009 (ip), vehicle: saline with Tween-80) is 111 % of control; the T/C (dose: 50.0 mg/kg/injection, schedule: Q04DX003 (ip), vehicle: saline with Tween-80) is 109 % of control; the T/C (dose: 100.0 mg/kg/injection, schedule: Q01DX009 (ip), vehicle: saline with Tween-80) was 107 % of control; the T/C (dose: 100.0 mg/kg/injection, schedule: Q04DX003 (ip), vehicle: saline with Tween-80) was 118 % of control.
On to `COc1cc2c(cc1OC)C1c3cc(OC)c(OC)cc3CC(=O)N1CC2` (stereo unspecified), for which the T/C was 110 % of control (dose: 0.09 mg/kg/injection, schedule: Q01DX009 (ip), vehicle: saline); 88 % of control (dose: 0.39 mg/kg/injection, schedule: Q01DX009 (ip), vehicle: saline); 98 % of control (dose: 0.78 mg/kg/injection, schedule: Q01DX009 (ip), vehicle: saline); 99 % of control (dose: 1.56 mg/kg/injection, schedule: Q01DX009 (ip), vehicle: saline); 100 % of control (dose: 3.12 mg/kg/injection, schedule: Q01DX009 (ip), vehicle: saline); 108 % of control (dose: 12.5 mg/kg/injection, schedule: Q01DX009 (ip), vehicle: saline). Also, the T/C is 102 % of control (dose: 50.0 mg/kg/injection, schedule: Q04DX003 (ip), vehicle: saline); 92 % of control (dose: 100.0 mg/kg/injection, schedule: Q01DX009 (ip), vehicle: saline); 99 % of control (dose: 100.0 mg/kg/injection, schedule: Q04DX003 (ip), vehicle: saline); 102 % of control (dose: 200.0 mg/kg/injection, schedule: Q04DX003 (ip), vehicle: saline); 93 % of control (dose: 400.0 mg/kg/injection, schedule: Q04DX003 (ip), vehicle: saline).
Turning to `N#CSc1ncnc2nc[nH]c12`, the T/C was 110 % of control (dose: 3.0 mg/kg/injection, schedule: Q01DX009 (ip), vehicle: alkali diluted with saline); 100 % of control (dose: 3.0 mg/kg/injection, schedule: Q04DX003 (ip), vehicle: alkali diluted with saline); 95 % of control (dose: 4.0 mg/kg/injection, schedule: Q01DX009 (ip), vehicle: alkali diluted with saline); 116 % of control (dose: 6.0 mg/kg/injection, schedule: Q01DX009 (ip), vehicle: alkali diluted with saline); 95 % of control (dose: 6.0 mg/kg/injection, schedule: Q04DX003 (ip), vehicle: alkali diluted with saline); 95 % of control (dose: 9.0 mg/kg/injection, schedule: Q01DX009 (ip), vehicle: alkali diluted with saline). Further, the T/C was 120 % of control (dose: 12.0 mg/kg/injection, schedule: Q01DX009 (ip), vehicle: alkali diluted with saline); 100 % of control and 113 % of control (dose: 12.0 mg/kg/injection, schedule: Q04DX003 (ip), vehicle: alkali diluted with saline).
Consider `CC1CC(O)C2C3(C)CCCC2(COC3=O)C12CCC1(CCOC1=O)O2` (stereo unspecified), for which the T/C is, setting by setting: (dose: 0.13 mg/kg/injection, schedule: Q01DX009 (ip), vehicle: saline) 112 % of control; (dose: 0.25 mg/kg/injection, schedule: Q01DX009 (ip), vehicle: saline) 104 % of control; (dose: 0.5 mg/kg/injection, schedule: Q01DX009 (ip), vehicle: saline) 93 % of control; (dose: 1.0 mg/kg/injection, schedule: Q01DX009 (ip), vehicle: saline) 104 % of control.
With `CC1C(=O)OC(C)(C)OC1=O`, the T/C is, setting by setting: (dose: 25.0 mg/kg/injection, schedule: Q01DX009 (ip), vehicle: Klucel (hydroxypropylcellulose) (HPC)) 106 % of control; (dose: 25.0 mg/kg/injection, schedule: Q04DX003 (ip), vehicle: Klucel (hydroxypropylcellulose) (HPC)) 91 % of control; under setting [3], 97 % of control; under setting [4], 123 % of control; under setting [5], 105 % of control; under setting [6], 97 % of control. The T/C runs as follows: (dose: 200.0 mg/kg/injection, schedule: Q01DX009 (ip), vehicle: Klucel (hydroxypropylcellulose) (HPC)) 104 % of control; under setting [7], 94 % of control; (dose: 400.0 mg/kg/injection, schedule: Q01DX009 (ip), vehicle: Klucel (hydroxypropylcellulose) (HPC)) 99 % of control; (dose: 400.0 mg/kg/injection, schedule: Q04DX003 (ip), vehicle: Klucel (hydroxypropylcellulose) (HPC)) 106 % of control.
As to `NNc1cnc2ccccc2n1`, the T/C is, setting by setting: (dose: 37.5 mg/kg/injection, schedule: Q04DX003 (ip), vehicle: saline with Tween-80) 100 % of control; (dose: 75.0 mg/kg/injection, schedule: Q04DX003 (ip), vehicle: saline with Tween-80) 191 % of control; (dose: 150.0 mg/kg/injection, schedule: Q04DX003 (ip), vehicle: saline with Tween-80) 100 % of control.
On to `NC(Cc1nn[nH]n1)C(=O)O` (stereo unspecified), for which the T/C was 100 % of control (dose: 100.0 mg/kg/injection, schedule: Q01DX009 (ip), vehicle: water); 97 % of control (dose: 100.0 mg/kg/injection, schedule: Q04DX003 (ip), vehicle: water); 94 % of control (dose: 200.0 mg/kg/injection, schedule: Q01DX009 (ip), vehicle: water); 96 % of control (dose: 200.0 mg/kg/injection, schedule: Q04DX003 (ip), vehicle: water); 94 % of control (dose: 400.0 mg/kg/injection, schedule: Q01DX009 (ip), vehicle: water); 90 % of control (dose: 400.0 mg/kg/injection, schedule: Q04DX003 (ip), vehicle: water).
As to `Clc1ccc(Oc2ccc(N3C=Nc4ccc(Oc5ccc(Cl)cc5)cc4C3)cc2)cc1`, the T/C reads like this: (dose: 100.0 mg/kg/injection, schedule: Q04DX003 (ip), vehicle: alcohol) 100 % of control; (dose: 200.0 mg/kg/injection, schedule: Q04DX003 (ip), vehicle: alcohol) 100 % of control; (dose: 400.0 mg/kg/injection, schedule: Q04DX003 (ip), vehicle: alcohol) 95 % of control.
